Assay results reported in ChEMBL document CHEMBL3112478, “Total synthesis of thiaplakortone a: derivatives as metabolically stable leads for the treatment of malaria” (ACS Med Chem Lett, 2014).
pIC50: −log10 of the molar value.

Tests used:
[1] = Selectivity index, ratio of IC50 for human NFF to IC50 for chloroquine-sensitive Plasmodium falciparum 3D7
NFF = assay: Cytotoxicity against human NFF after 72 hrs by SRB assay; assay type: cell-based
[2] = Selectivity index, ratio of IC50 for human NFF to IC50 for chloroquine and mefloquine-resistant Plasmodium falciparum Dd2
Plasmodium falciparum [3] = assay: Antimalarial activity against chloroquine and mefloquine-resistant Plasmodium falciparum Dd2 assessed as [3H]-hypoxanthine incorporation after 48 hrs by liquid scintillation counting analysis; assay type: functional
Plasmodium falciparum [4] = assay: Antimalarial activity against chloroquine-sensitive Plasmodium falciparum 3D7 assessed as [3H]-hypoxanthine incorporation after 48 hrs by liquid scintillation counting analysis; assay type: functional, organism-based
[5] = Intrinsic clearance in human liver microsomes at 1 uM after 60 mins by LC-MS/MS analysis; assay type: ADME; conditions: read-out: CLH
[6] = Selectivity ratio of IC50 for chloroquine-sensitive Plasmodium falciparum 3D7 to IC50 for chloroquine and mefloquine-resistant Plasmodium falciparum Dd2; assay type: functional
[7] = Intrinsic clearance in mouse liver microsomes at 1 uM after 60 mins by LC-MS/MS analysis; assay type: ADME, Microsome; conditions: read-out: CLH
[8] = Solubility of the compound in phosphate buffered saline under neutral condition; assay type: physicochemical; conditions: buffer
[9] = Solubility of the compound in phosphate buffered saline under acidic condition; assay type: physicochemical; conditions: buffer
[10] = Half life in mouse liver microsomes at 1 uM after 60 mins by LC-MS/MS analysis; assay type: ADME, Microsome
[11] = Half life in human liver microsomes at 1 uM after 60 mins by LC-MS/MS analysis; assay type: ADME
Mus musculus [12] = assay: Toxicity in Swiss mouse assessed as orange urine at 4 to 8 mg/kg; assay type: organism-based; design: dose 4-8 mg/kg; conditions: in vivo
Mus musculus [13] = assay: Toxicity in Swiss mouse assessed as swollen conjuctiva of eyes at 4 to 8 mg/kg; assay type: organism-based; design: dose 4-8 mg/kg; conditions: in vivo
Mus musculus [14] = assay: Toxicity in Swiss mouse assessed as difficulty in movement at 4 to 8 mg/kg; assay type: organism-based; design: dose 4-8 mg/kg; conditions: in vivo
Mus musculus [15] = assay: Toxicity in Swiss mouse assessed as whole body tremor at 4 to 8 mg/kg; assay type: organism-based; design: dose 4-8 mg/kg; conditions: in vivo
Plasmodium falciparum [16] = assay: Antimalarial activity against chloroquine-sensitive Plasmodium falciparum 3D7 assessed as growth inhibition; assay type: functional, organism-based
Mus musculus [17] = assay: Toxicity in Swiss mouse assessed as ruffled coat at 16 mg/kg measured up to 2 hrs post compound administration; assay type: organism-based; design: dose 16 mg/kg; conditions: in vivo
Plasmodium falciparum [18] = assay: Antimalarial activity against chloroquine and mefloquine-resistant Plasmodium falciparum Dd2 assessed as growth inhibition; assay type: functional
Mus musculus [19] = assay: Toxicity in Swiss mouse assessed as lethargy at 16 mg/kg measured up to 2 hrs post compound administration; assay type: organism-based; design: dose 16 mg/kg; conditions: in vivo
Mus musculus [20] = assay: Toxicity in Swiss mouse assessed as whole body tremor at 16 mg/kg measured up to 2 hrs post compound administration; assay type: organism-based; design: dose 16 mg/kg; conditions: in vivo
Mus musculus [21] = assay: Toxicity in Swiss mouse assessed as whole body tremor at 8 mg/kg administered for 4 days measured after 1 to 2 hrs of each dose; assay type: organism-based; design: dose 8 mg/kg; conditions: in vivo
Mus musculus [22] = assay: Toxicity in Swiss mouse assessed as ruffled coat at 8 mg/kg administered for 4 days; assay type: organism-based; design: dose 8 mg/kg; conditions: in vivo, 96 h
Mus musculus [23] = assay: Toxicity in Swiss mouse assessed as panting at 4 to 8 mg/kg measured up to 15 mins post compound administration; assay type: organism-based; design: dose 4-8 mg/kg; conditions: in vivo, 0.25 h
Mus musculus [24] = assay: Toxicity in Swiss mouse assessed as whole body tremor at 4 to 8 mg/kg measured up to 15 mins post compound administration; assay type: organism-based; design: dose 4-8 mg/kg; conditions: in vivo, 0.25 h

| SMILES | Ratio IC50 [1] | pIC50 (NFF) | Ratio IC50 [2] | pIC50 (Plasmodium falciparum [3]) | pIC50 (Plasmodium falciparum [4]) | microsomal CLint at 1 µM [5] | Ratio IC50 [6] | microsomal CLint at 1 µM [7] | solubility [8] | solubility [9] | half-life at 1 µM [10] | half-life at 1 µM [11] | also measured |
| --- | --- | --- | --- | --- | --- | --- | --- | --- | --- | --- | --- | --- | --- |
| Cn1cc(CCN)c2c1C(=O)C1=C(NC=CS1(=O)=O)C2=O | 32 | 4.88 | 81 | 6.79 | 6.38 | – | – | – | – | – | – | – | – |
| CNCCc1c[nH]c2c1C(=O)C1=C(NC=CS1(=O)=O)C2=O.Cl | 9 | 5.83 | 31 | 7.33 | 6.80 | 17 µL/min/mg | 3.4 | 11 µL/min/mg | soluble | soluble | 2.52 h | 1.67 h | – |
| CNCCc1cn(C)c2c1C(=O)C1=C(NC=CS1(=O)=O)C2=O.Cl | 17 | 5.64 | 29 | 7.10 | 6.86 | < 7 µL/min/mg | 1.7 | < 7 µL/min/mg | soluble | soluble | > 4.17 h | > 4.17 h | Activity (Mus musculus [12]): Toxic; Activity (Mus musculus [13]): Toxic; Activity (Mus musculus [14]): Toxic; Activity (Mus musculus [15]): Toxic |
| CCN(CC)CCCC(C)Nc1ccnc2cc(Cl)ccc12 (configuration not stated) [CHLOROQUINE] | – | 4.34 | – | – | – | – | – | – | – | – | – | – | – |
| Cl.NCCc1c[nH]c2c1C(=O)C1=C(NC=CS1(=O)=O)C2=O | 14 | 5.82 | 60 | 7.62 | 6.98 | 46 µL/min/mg | 4.3 | 68 µL/min/mg | soluble | soluble | 0.417 h | 0.617 h | pIC50 (Plasmodium falciparum [16]): 7.29; Activity (Mus musculus [17]): Toxic; pIC50 (Plasmodium falciparum [18]): 8.18; Activity (Mus musculus [19]): Toxic; Activity (Mus musculus [20]): Toxic; Activity (Mus musculus [21]): Toxic; Activity (Mus musculus [22]): Toxic |
| Cl.Cn1cc(CCN)c2c1C(=O)C1=C(C2=O)S(=O)(=O)C=CN1 | 18 | 5.64 | 40 | 7.24 | 6.89 | < 7 µL/min/mg | 1.7 | < 7 µL/min/mg | soluble | soluble | > 4.17 h | > 4.17 h | Activity (Mus musculus [23]): Toxic; Activity (Mus musculus [24]): Toxic |
